Here are results for 13 compounds from patent US20090042879A1, “PHTHALAZINONE DERIVATIVES AND PHARMACEUTICAL COMPOSITIONS COMPRISING THE SAME” (NIPPON SHINYAKU CO., LTD., priority 2005, published 2009).

The subject of data set [1] is TNF-α production from rat whole blood cells stimulated with LPS. Description: TNF-α production-suppressing activity in LPS-stimulated rat whole blood (ELISA). The data set is classed as cell-based. The conditions noted are these: 37° C. for 5 hours. On the procedure: The activity of a test compound to suppress TNF-α production from rat whole blood cells stimulated with LPS was evaluated in the manner mentioned below (J. Pharmacol. Exp. Ther., 302, 390-396, 2000).
Under anesthesia with ether, a proper amount of blood was taken out from a 10-week male SD rat (♂, 10-week old) through its abdominal vein into a tube with EDTA (1.6 mg/mL) therein. A test compound was dissolved in dimethyl sulfoxide to prepare its 10^−2 M solution, which was diluted before use. 80 μL of rat blood was dispensed into each well of a 96-well plate, then 10 μL of the test compound solution was added thereto, and incubated at 37° C. in 5% CO2 for 30 minutes. The test compound and the blood were well mixed, then 10 μL of LPS (100 μg/mL) was added thereto, and incubated at 37° C. in 5% CO2 for 5 hours. Further, 100 μL of PBS was added to each well, then the plate was centrifuged at 4000 rpm for 2 minutes to collect the supernatant, and this was frozen and stored at −80° C. until its use for analysis. The amount of TNF-α production was measured through ELISA. IC50 for TNF-α production-suppressing activity was calculated as the test compound concentration for 50% inhibition of TNF-α production.
As a control compound, the above-mentioned known compound (compound of general formula [A] in which R is a carboxyl group, cis-4-[4-(3,4-dimethoxyphenyl)-1-oxo-4a,5,8,8a-tetrahydro-1H-phthalazin-2-yl-methyl]benzoic acid (hereinafter referred to as control compound A)) was used.

The next data set relates to TNCB-induced dermatitis. The experiment in a line: Dermatitis inhibitory effect in trinitrochlorobenzene (TNCB)-induced dermatitis model. Type of data set: in vivo, BALB/C mouse. The settings on record: 20 mg of 1.0% test compound/vaseline ointment on right pinna, five times in 1 week; pinna thickness 6 hours after last application. On the procedure:
The dermatitis inhibitory effect of a test compound was investigated, using a trinitrochlorobenzene (TNCB)-induced dermatitis model (J. Invest. Dermatol., 105, 749-755, 1995, J. Immuno., 159, 2484-2491, 1997).
20 μL of 1% (w/v) TNCB/acetone solution was applied dropwise to both sides of the right pinna of a BALB/C mouse (♂, 8-week old), whereby the mouse was sensitized. From day 7 after the sensitization with TNCB, 1% TNCB/acetone solution was applied to both sides of the right pinna of the mouse every other day at 3 times/week, for 3 weeks in total. TNCB was applied for 2 weeks so as to fully induce dermatitis in the mouse, and then 20 mg of 1.0% test compound/vaseline ointment was applied to both sides of the right pinna five times in total for 1 week. At 6 hours after the last application, the thickness of the right pinna of the mouse was measured, and the effect of the test compound on dermatitis was thus evaluated. The inhibitory rate was calculated according to the following formula.
Inhibitory Rate (%)={1−[mean thickness of inflamed pinna (right ear) of chemical-treated group−mean thickness of non-inflamed pinna (left ear) of the group]/[mean thickness of inflamed pinna (right ear) of diseased control group−mean thickness of non-inflamed pinna (left ear) of the group]}×100.

In another data set the target is T1, human recombinant PDE4D (Homo sapiens, UniProt Q08499).
T1 construct: purchased ABNOVA H00005144-P01
T1 sequence (Q08499 whole entry): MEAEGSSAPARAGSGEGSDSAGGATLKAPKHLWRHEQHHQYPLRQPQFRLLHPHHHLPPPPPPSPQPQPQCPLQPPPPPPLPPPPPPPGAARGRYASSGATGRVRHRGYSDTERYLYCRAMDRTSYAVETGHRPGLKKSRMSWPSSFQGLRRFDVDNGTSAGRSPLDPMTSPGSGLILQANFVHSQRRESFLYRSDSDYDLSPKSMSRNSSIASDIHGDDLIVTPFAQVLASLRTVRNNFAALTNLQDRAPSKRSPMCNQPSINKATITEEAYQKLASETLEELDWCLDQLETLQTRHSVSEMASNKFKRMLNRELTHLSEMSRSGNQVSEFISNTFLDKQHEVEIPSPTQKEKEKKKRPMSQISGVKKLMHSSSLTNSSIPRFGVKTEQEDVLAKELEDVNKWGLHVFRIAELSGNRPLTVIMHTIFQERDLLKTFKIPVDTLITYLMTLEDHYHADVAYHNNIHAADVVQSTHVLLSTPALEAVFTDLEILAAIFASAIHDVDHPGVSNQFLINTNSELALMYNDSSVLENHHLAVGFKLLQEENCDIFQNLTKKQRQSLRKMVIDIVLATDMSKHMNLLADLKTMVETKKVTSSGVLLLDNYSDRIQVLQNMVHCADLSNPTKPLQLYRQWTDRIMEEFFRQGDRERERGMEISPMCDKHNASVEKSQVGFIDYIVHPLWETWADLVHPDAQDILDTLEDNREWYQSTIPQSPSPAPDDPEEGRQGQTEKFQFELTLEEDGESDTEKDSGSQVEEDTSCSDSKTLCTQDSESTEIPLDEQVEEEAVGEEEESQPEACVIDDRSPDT
Description: PDE4 inhibitory activity (cAMP hydrolysis, HitHunter cAMP II chemiluminescent kit). Type of data set: biochemical. The settings on record: 5 ng human recombinant PDE4D, 1 pmol cAMP, 30° C. for 30 minutes. On the procedure:
The activity of a test compound to inhibit human PDE4 was evaluated in the manner mentioned below.
In the presence of a test compound (10^−7 to 10^−12 M), 1 pmol of cAMP was hydrolyzed through incubation with 5 ng of human recombinant PDE4D (ABNOVA's #H00005144-P01, Lot. FAK0050713Jb01, Taiwan) at 30° C. for 30 minutes. After the hydrolysis, the cAMP concentration was measured with a chemiluminescent kit, HitHunter cAMP II Assay Kit (by Amersham Bioscience).

A short description of data set [2]: Metabolism by human liver microsome. Type of data set: in vitro ADME. The conditions noted are these: NADPH producing system, 37° C., 10 minutes after start of incubation. On the procedure:
The metabolic characteristics of a test compound were investigated, using human liver microsome.
400 μL of EP buffer (0.25 mM EDTA, 0.25 M potassium phosphate buffer, pH 7.4), 50 μL of 20 mg/mL human liver microsome fraction (by KAC), 350 μl of pure water and 100 μL of 1×10^−4 M test compound were put into a 1.5 mL microtube, and preincubated at 37° C. for 5 minutes. 100 μL of an NADPH producing system (containing 20 mg of NADP+, 70 mg of G6P, 40 units of G6PDH, 20 mg of magnesium chloride hexahydrate in 1 mL of pure water) was added to it, and incubated. To 100 μL of the sample taken at 10 minutes after the start of the incubation, added was the same amount of acetonitrile, and the reaction was thereby stopped. […] 20 μL of the supernatant was led into a high-performance liquid chromatography (Shimadzu'sSPD-10A, LC-10AS, CTO-10A, C-R6A), and the peak area of the test compound at 320 nm was measured, using a C18 column (Cadenza, CD-C18, 75×4.6 mm). […] Under the condition, the peak area of the test compound was measured. The metabolic rate was calculated as follows: 100 μL of acetonitrile was added to 90 μL of the above pre-incubated solution, and then 10 μl of the NADPH producing system was added thereto, and the resulting solution was analyzed for the peak area of the test compound. Based on it, the metabolic rate in 10 minutes after the incubation was calculated.

The mark [3] stands for this setting: Rattus norvegicus, Whole blood cell, 5 h.

For the compound `COc1ccc(C2=NN(Cc3ccc(CN4CCC(=O)CC4)cc3)C(=O)[C@H]3CC=CC[C@@H]23)cc1OC` (relative stereo) [Example 6, cis-4-(3,4-Dimethoxyphenyl)-2-[4-(4-oxopiperidin-1-ylmethyl)benzyl]-4a,5,8,8a-tetrahydro-2H-phthalazin-1-one], the IC50 is 0.084 µM in data set [1] (setting [3]) and 0.0013 µM at human recombinant PDE4D. Besides, in the data set with TNCB-induced dermatitis, the “Dermatitis Inhibitory Percentage (%)” value was 36.8%.
Take `COc1ccc(C2=NN(Cc3ccc(N4CCOCC4)cc3)C(=O)[C@H]3CC=CC[C@@H]23)cc1OC` (relative stereo) [Example 24, cis-4-(3,4-Dimethoxyphenyl)-2-(4-morpholin-4-ylbenzyl)-4a,5,8,8a-tetrahydro-2H-phthalazin-1-one]: half-maximal inhibition in data set [1] (Whole blood cell) (IC50) was put at 0.012 µM.
The same measure, in the same setting: as for `COc1ccc(C2=NN(Cc3ccc(CN4CCNC(=O)C4)cc3)C(=O)[C@H]3CC=CC[C@@H]23)cc1OC` (relative stereo) [Example 16, cis-(+)-4-(3,4-Dimethoxyphenyl)-2-[4-(3-oxopiperazin-1-ylmethyl)benzyl]-4a,5,8,8a-tetrahydro-2H-phthalazin-1-one], the figure is 0.0049 µM.
Regarding `COc1ccc(C2=NN(Cc3ccc(CN4CCOCC4)cc3)C(=O)C3CC=CCC23)cc1OC` (single isomer, unassigned) [Example 2-2, cis-(+)-4-(3,4-Dimethoxyphenyl)-2-[4-(morpholin-4-ylmethyl)benzyl]-4a,5,8,8a-tetrahydro-2H-phthalazin-1-one monomaleate], the IC50 in data set [1] (monomaleate) worked out at 0.0011 µM; at human recombinant PDE4D it was 0.00079 µM.
Take `COc1ccc(C2=NN(Cc3ccc(CN4CCOCC4)cc3)C(=O)[C@H]3CCCC[C@@H]23)cc1OC` (relative stereo) [Example 13, cis-4-(3,4-Dimethoxyphenyl)-2-[4-(morpholin-4-ylmethyl)benzyl]-4a,5,6,7,8,8a-hexahydro-2H-phthalazin-1-one]: the IC50 in data set [1] (Whole blood cell) was 0.059 µM; at human recombinant PDE4D, 0.005 µM. In the data set with TNCB-induced dermatitis, the “Dermatitis Inhibitory Percentage (%)” value came out at 33.2%.
`COc1ccc(C2=NN(Cc3ccc(CN4CCOCC4)cc3)C(=O)C3CC=CCC23)cc1OC` (single isomer, unassigned) [Example 2-1, cis-(+)-4-(3,4-Dimethoxyphenyl)-2-[4-(morpholin-4-ylmethyl)benzyl]-4a,5,8,8a-tetrahydro-2H-phthalazin-1-one] yielded an IC50 in data set [1] (Whole blood cell) of 0.0024 µM. Further, in the data set with TNCB-induced dermatitis, the “Dermatitis Inhibitory Percentage (%)” value came out at 38.5%. For the same compound, the “Metabolic Rate (%)” value in data set [2] turned out to be 61.5%.
In turn, `COc1ccc(C2=NN(Cc3cccc(CN4CCNC(=O)C4)c3)C(=O)[C@H]3CC=CC[C@@H]23)cc1OC` (relative stereo) [Example 20, cis-(+)-4-(3,4-dimethoxyphenyl)-2-[3-(3-oxopiperazin-1-ylmethyl)benzyl]-4a,5,8,8a-tetrahydro-2H-phthalazin-1-one] displayed an IC50 in data set [1] (Whole blood cell) of 0.019 µM.
For `COc1ccc(C2=NN(Cc3cccc(CN4CCOCC4)c3)C(=O)[C@H]3CC=CC[C@@H]23)cc1OC` (relative stereo) [Example 10, cis-4-(3,4-Dimethoxyphenyl)-2-[3-(morpholin-4-ylmethyl)benzyl]-4a,5,8,8a-tetrahydro-2H-phthalazin-1-one], the IC50 turned out to be 0.107 µM in data set [1] (Whole blood cell) and 0.02 µM at human recombinant PDE4D. Further, in the data set on TNCB-induced dermatitis, the “Dermatitis Inhibitory Percentage (%)” value amounted to 31.1%.
Compound `COc1ccc(C2=NN(Cc3ccc(C[N+]4([O-])CCOCC4)cc3)C(=O)[C@H]3CC=CC[C@@H]23)cc1OC` (relative stereo) [Example 21, cis-(+)-4-{4-[4-(3,4-dimethoxyphenyl)-1-oxo-4a,5,8,8a-tetrahydro-1H-phthalazin-2-ylmethyl]benzyl}morpholine 4-oxide] displayed an IC50 in data set [1] (Whole blood cell) of 0.012 µM.
In data set [1] (Whole blood cell), `COc1ccc(C2=NN(Cc3ccc(C(=O)O)cc3)C(=O)[C@H]3CC=CC[C@@H]23)cc1OC` (relative stereo) [control compound A, cis-4-[4-(3,4-dimethoxyphenyl)-1-oxo-4a,5,8,8a-tetrahydro-1H-phthalazin-2-yl-methyl]benzoic acid, reference compound] yielded an IC50 of 133 µM. In addition, in the data set with TNCB-induced dermatitis, the “Dermatitis Inhibitory Percentage (%)” value was 2.6%. Also, the “Metabolic Rate (%)” value in data set [2] turned out to be 35.2%.
Turning to `COc1ccc(C2=NN(Cc3ccc(Cn4ccnc4)cc3)C(=O)[C@H]3CC=CC[C@@H]23)cc1OC` (relative stereo) [Example 9, cis-4-(3,4-Dimethoxyphenyl)-2-[4-(imidazol-1-ylmethyl)benzyl]-4a,5,8,8a-tetrahydro-2H-phthalazin-1-one], the IC50 was 0.001 µM in data set [1] (setting [3]) and 0.025 µM at human recombinant PDE4D.
Take `COc1ccc(C2=NN(Cc3ccc(CN4CCOCC4)cc3)C(=O)C3CC=CCC23)cc1OC` (stereo not drawn) [Example 1, cis-4-(3,4-Dimethoxyphenyl)-2-[4-(morpholin-4-ylmethyl)benzyl]-4a,5,8,8a-tetrahydro-2H-phthalazin-1-one]: the results for the IC50 (in data set [1] (setting [3]); at human recombinant PDE4D) were 0.0043 µM and 0.063 µM, respectively. Further, the “Dermatitis Inhibitory Percentage (%)” value in the data set on TNCB-induced dermatitis is on record as 31.2%.
Turning to `COc1ccc(C2=NN(Cc3ccc(CN4CCC5(CC4)OCCO5)cc3)C(=O)[C@H]3CC=CC[C@@H]23)cc1OC` (relative stereo) [Example 5, cis-4-(3,4-Dimethoxyphenyl)-2-[4-(1,4-dioxa-8-azaspiro[4,5]dec-8-ylmethyl)benzyl]-4a,5,8,8a-tetrahydro-2H-phthalazin-1-one], the values for the IC50 (in data set [1] (Whole blood cell); on human recombinant PDE4D) were 0.199 µM and 0.02 µM, respectively. Also, the “Dermatitis Inhibitory Percentage (%)” value in the data set on TNCB-induced dermatitis came out at 20.2%.
